Laboratory results: the supplement of paper PMC10307832

Legend:
Experiment in all cases: relative viability (nuclei count vs DMSO), 5 days (fraction); higher = more cells survive
[1] = system: NCI-H1734
How it was run: (§1)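 Relative viability divides the nuclei count in treated wells by that in vehicle wells. Lung cancer cell lines were seeded in 1536-well plates, dosed by pin tool the next day, and fixed and stained after 5 days in one step with final 0.05% Triton X-100, 1% formaldehyde and 1 ug/ml Hoechst. Dosing was a single drug or a fixed anchor-drug dose plus five library-drug doses (not always all listed) in √10 steps, and values are medians of duplicate plates imaged at 4×.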

[2] = system: EKVX
How it was run: as §1

[3] = system: NCI-H1793
How it was run: as §1

[4] = system: NCI-H2347
How it was run: as §1

[5] = system: NCI-H1437
How it was run: as §1

[6] = system: HCC-827
How it was run: as §1

[7] = system: LXF-289
How it was run: as §1

[8] = system: NCI-H522
How it was run: as §1

[9] = system: HARA
How it was run: as §1

[10] = system: NCI-H358
How it was run: as §1

[11] = system: UMC-11
How it was run: as §1

[12] = system: HCC-78
How it was run: as §1

[13] = system: CAL-12T
How it was run: as §1

[14] = system: 201T
How it was run: as §1

[15] = system: LU99A
How it was run: as §1

[16] = system: NCI-H1648
How it was run: as §1

[17] = system: NCI-H2170
How it was run: as §1

[18] = system: NCI-H1915
How it was run: as §1

[19] = system: LOU-NH91
How it was run: as §1

[20] = system: COR-L 105
How it was run: as §1

[21] = system: NCI-H2342
How it was run: as §1

[22] = system: HCC-366
How it was run: as §1

Question: For `Nc1cccc2c1CN(C1CCC(=O)NC1=O)C2=O` (centres undefined) [Lenalidomide] + Nc1nc2[nH]cc(CCc3ccc(C(=O)N[C@@H](CCC(=O)O)C(=O)O)cc3)c2c(=O)[nH]1 [Pemetrexed] (partner 0.2 µM), which relative viability ([1]; first compound 0.253 µM) is on record?
Answer: Its relative viability is 0.465.

Question: What about the relative viability ([1]; first compound 0.8 µM) of the same compound?
Answer: Its relative viability is 0.465.

Question: And the relative viability ([1]; first compound 2.53 µM)?
Answer: The relative viability was 0.433.

Question: What about the relative viability ([1]; first compound 8 µM) of the same compound?
Answer: The relative viability was 0.479.

Question: And the relative viability ([2]; first compound 0.253 µM)?
Answer: The relative viability was 0.333.

Question: What about the relative viability ([2]; first compound 0.8 µM) of the same compound?
Answer: The relative viability was 0.33.

Question: What about the relative viability ([2]; first compound 2.53 µM) of the same compound?
Answer: Its relative viability is 0.466.

Question: What about the relative viability ([2]; first compound 8 µM) of the same compound?
Answer: The relative viability was 0.396.

Question: What about the relative viability ([3]; first compound 0.253 µM) of the same compound?
Answer: The relative viability was 0.921.

Question: And the relative viability ([3]; first compound 2.53 µM)?
Answer: Its relative viability is 1.15.

Question: And the relative viability ([3]; first compound 8 µM)?
Answer: Its relative viability is 0.411.

Question: And the relative viability ([4]; first compound 0.253 µM)?
Answer: Its relative viability is 0.405.

Question: And the relative viability ([4]; first compound 0.8 µM)?
Answer: The relative viability was 0.435.

Question: What about the relative viability ([4]; first compound 2.53 µM) of the same compound?
Answer: Its relative viability is 0.415.

Question: And the relative viability ([4]; first compound 8 µM)?
Answer: The relative viability was 0.431.

Question: What about the relative viability ([5]; first compound 0.253 µM) of the same compound?
Answer: Its relative viability is 0.294.

Question: And the relative viability ([5]; first compound 0.8 µM)?
Answer: The relative viability was 0.33.

Question: What about the relative viability ([5]; first compound 2.53 µM) of the same compound?
Answer: Its relative viability is 0.327.

Question: And the relative viability ([5]; first compound 8 µM)?
Answer: The relative viability was 0.323.

Question: What about the relative viability ([6]; first compound 0.253 µM) of the same compound?
Answer: The relative viability was 0.276.

Question: And the relative viability ([6]; first compound 0.8 µM)?
Answer: Its relative viability is 0.269.

Question: What about the relative viability ([6]; first compound 2.53 µM) of the same compound?
Answer: The relative viability was 0.252.

Question: What about the relative viability ([6]; first compound 8 µM) of the same compound?
Answer: Its relative viability is 0.304.

Question: And the relative viability ([7]; first compound 0.253 µM)?
Answer: The relative viability was 0.904.

Question: What about the relative viability ([7]; first compound 0.8 µM) of the same compound?
Answer: The relative viability was 1.13.

Question: What about the relative viability ([7]; first compound 2.53 µM) of the same compound?
Answer: Its relative viability is 0.939.

Question: And the relative viability ([7]; first compound 8 µM)?
Answer: Its relative viability is 1.06.

Question: What about the relative viability ([8]; first compound 0.253 µM) of the same compound?
Answer: Its relative viability is 1.05.

Question: What about the relative viability ([8]; first compound 0.8 µM) of the same compound?
Answer: The relative viability was 0.912.

Question: And the relative viability ([8]; first compound 2.53 µM)?
Answer: The relative viability was 1.11.

Question: What about the relative viability ([8]; first compound 8 µM) of the same compound?
Answer: Its relative viability is 0.663.

Question: What about the relative viability ([9]; first compound 0.253 µM) of the same compound?
Answer: Its relative viability is 0.258.

Question: And the relative viability ([9]; first compound 2.53 µM)?
Answer: Its relative viability is 0.249.

Question: What about the relative viability ([9]; first compound 8 µM) of the same compound?
Answer: The relative viability was 0.259.

Question: And the relative viability ([10]; first compound 0.8 µM)?
Answer: The relative viability was 0.197.

Question: What about the relative viability ([10]; first compound 2.53 µM) of the same compound?
Answer: Its relative viability is 0.182.

Question: And the relative viability ([10]; first compound 8 µM)?
Answer: Its relative viability is 0.179.

Question: And the relative viability ([11]; first compound 0.253 µM)?
Answer: The relative viability was 0.93.

Question: And the relative viability ([11]; first compound 0.8 µM)?
Answer: Its relative viability is 0.72.

Question: And the relative viability ([11]; first compound 2.53 µM)?
Answer: The relative viability was 0.84.

Question: What about the relative viability ([11]; first compound 8 µM) of the same compound?
Answer: The relative viability was 0.8.

Question: And the relative viability ([12]; first compound 0.253 µM)?
Answer: Its relative viability is 0.878.

Question: What about the relative viability ([12]; first compound 0.8 µM) of the same compound?
Answer: Its relative viability is 0.936.

Question: And the relative viability ([12]; first compound 2.53 µM)?
Answer: The relative viability was 0.886.

Question: What about the relative viability ([12]; first compound 8 µM) of the same compound?
Answer: Its relative viability is 0.937.

Question: What about the relative viability ([13]; first compound 0.253 µM) of the same compound?
Answer: Its relative viability is 1.18.

Question: And the relative viability ([13]; first compound 0.8 µM)?
Answer: Its relative viability is 1.32.

Question: What about the relative viability ([13]; first compound 2.53 µM) of the same compound?
Answer: The relative viability was 1.67.

Question: What about the relative viability ([13]; first compound 8 µM) of the same compound?
Answer: Its relative viability is 1.57.

Question: What about the relative viability ([14]; first compound 0.253 µM) of the same compound?
Answer: The relative viability was 0.33.

Question: And the relative viability ([14]; first compound 0.8 µM)?
Answer: The relative viability was 0.325.

Question: What about the relative viability ([14]; first compound 2.53 µM) of the same compound?
Answer: The relative viability was 0.322.

Question: What about the relative viability ([14]; first compound 8 µM) of the same compound?
Answer: The relative viability was 0.287.

Question: What about the relative viability ([15]; first compound 0.253 µM) of the same compound?
Answer: The relative viability was 0.188.

Question: And the relative viability ([15]; first compound 0.8 µM)?
Answer: Its relative viability is 0.183.

Question: And the relative viability ([15]; first compound 2.53 µM)?
Answer: The relative viability was 0.169.

Question: What about the relative viability ([15]; first compound 8 µM) of the same compound?
Answer: The relative viability was 0.169.

Question: What about the relative viability ([16]; first compound 0.253 µM) of the same compound?
Answer: Its relative viability is 0.765.

Question: What about the relative viability ([16]; first compound 2.53 µM) of the same compound?
Answer: The relative viability was 0.711.

Question: And the relative viability ([16]; first compound 8 µM)?
Answer: The relative viability was 0.747.

Question: And the relative viability ([17]; first compound 0.253 µM)?
Answer: Its relative viability is 0.279.

Question: And the relative viability ([17]; first compound 0.8 µM)?
Answer: Its relative viability is 0.282.

Question: What about the relative viability ([17]; first compound 2.53 µM) of the same compound?
Answer: The relative viability was 0.259.

Question: And the relative viability ([17]; first compound 8 µM)?
Answer: Its relative viability is 0.27.

Question: What about the relative viability ([18]; first compound 0.253 µM) of the same compound?
Answer: The relative viability was 0.492.

Question: And the relative viability ([18]; first compound 0.8 µM)?
Answer: Its relative viability is 0.515.

Question: What about the relative viability ([18]; first compound 2.53 µM) of the same compound?
Answer: The relative viability was 0.518.

Question: What about the relative viability ([18]; first compound 8 µM) of the same compound?
Answer: Its relative viability is 0.476.

Question: And the relative viability ([19]; first compound 0.253 µM)?
Answer: The relative viability was 0.398.

Question: And the relative viability ([19]; first compound 0.8 µM)?
Answer: Its relative viability is 0.361.

Question: And the relative viability ([19]; first compound 2.53 µM)?
Answer: The relative viability was 0.408.

Question: And the relative viability ([19]; first compound 8 µM)?
Answer: The relative viability was 0.406.

Question: What about the relative viability ([20]; first compound 0.253 µM) of the same compound?
Answer: The relative viability was 1.21.

Question: What about the relative viability ([20]; first compound 0.8 µM) of the same compound?
Answer: Its relative viability is 1.16.

Question: And the relative viability ([20]; first compound 2.53 µM)?
Answer: Its relative viability is 1.22.

Question: And the relative viability ([20]; first compound 8 µM)?
Answer: The relative viability was 1.2.

Question: And the relative viability ([21]; first compound 0.253 µM)?
Answer: The relative viability was 0.868.

Question: And the relative viability ([21]; first compound 0.8 µM)?
Answer: Its relative viability is 0.774.

Question: What about the relative viability ([21]; first compound 2.53 µM) of the same compound?
Answer: Its relative viability is 0.771.

Question: What about the relative viability ([21]; first compound 8 µM) of the same compound?
Answer: Its relative viability is 0.577.

Question: What about the relative viability ([22]; first compound 0.253 µM) of the same compound?
Answer: Its relative viability is 0.161.

Question: And the relative viability ([22]; first compound 0.8 µM)?
Answer: Its relative viability is 0.123.

Question: And the relative viability ([22]; first compound 2.53 µM)?
Answer: The relative viability was 0.206.

Question: And the relative viability ([22]; first compound 8 µM)?
Answer: Its relative viability is 0.264.
